Key:
[1] = tested on: bacterial taxa (stool microbiota); assay: Pre-PPI/post-PPI longitudinal study, stool 16S rRNA bacterial community analysis; assay type: in vivo, human; details: after 14 days of 40 mg omeprazole daily
Protocol: (§1) The impact of PPI on fungal parameters were analyzed from a prior trial in which 40 mg of omeprazole was administered daily for 14 days in compensated outpatients with cirrhosis and healthy controls, (Bajaj J S, et al. Am J Physiol Gastrointest Liver Physiol 2014 307:G951-G957).
(§2) For all these studies, Shannon diversity indices for both bacterial and fungal taxa as well as LEFSe comparisons (Segata N, et al. Genome Biol 2011 12:R60) at baseline and the end of study were performed and compared.
(§3) Microbial DNA were isolated from stool samples as previously described (Gillevet P, et al. Chem Biodivers 2010 7:1065-75). […] Amplicons for 96 samples were then sequenced together to generate >20,000×400 base reads per sample.
The Microbiome Analysis Center's Portal was used to organize raw data, track clinical metadata, and track analysis between the groups at baseline and/if they develop infections and are resampled. […] The taxonomic identity of reference sequences were determined using the RDP11 Classifier (Wang Q et al. Appl Environ Microbiol 2007 73:5261-7) and QIIME Pipeline. […] Changes in abundance of individual bacterial and fungal taxa were also analyzed using traditional univariate statistical methods. […]

[2] = tested on: fungal taxa (stool mycobiome); assay: Pre-PPI/post-PPI longitudinal study, stool ITS1 fungal community analysis; assay type: in vivo, human; details: after 14 days of 40 mg omeprazole daily
Protocol: as §1, §2
Similarly, the ITS1 regions of the fungal 18S ribosomal RNA (rRNA) gene were sequenced on a PGM Ion Torrent Next-generation sequencer using Multitag fusion primers (ITS1F: 5′-[…]-3′ (SEQ ID NO:3); ITS2: 5′-[…]-3′ (SEQ ID NO:4)). Amplicons for 96 samples were sequenced together to generate >10,000×400 base reads per sample. The mycobiome is generally less diverse than the microbiome and thus required fewer reads to interrogate this community (Ghannoum M A, et al. PLoS pathogens 2010 6:e1000713). Greater than 1000 reads for bacteria and greater than 100 reads for fungi were used given the relatively lower abundance of fungal taxa as the lowest number chosen to be acceptable. […] A cutoff of 100 reads per sample was used as that was clearly above the negative control and is the break point in FIG. 6. […]

[3] = Pre-PPI/post-PPI longitudinal study, clinical course; assay type: in vivo, human; details: patients with cirrhosis; before 8.1±2.7, p=0.41
Protocol: The impact of PPI on fungal parameters were analyzed from a prior trial in which 40 mg of omeprazole was administered daily for 14 days in compensated outpatients with cirrhosis and healthy controls, (Bajaj J S, et al. Am J Physiol Gastrointest Liver Physiol 2014 307:[…]-[…]).

[4] = all subjects, 40 mg daily for 14 days, as reported in prior trial; cited from earlier work
[5] = tested on: bacterial taxa (stool microbiota); assay: Cross-sectional study of outpatients with cirrhosis, bacterial Shannon diversity; assay type: in vivo, human; details: outpatients with cirrhosis on rifaximin without SBP prophylaxis; vs SBPP 1.3±0.5
Protocol: (§4) Healthy controls that were age-matched were enrolled with two sets of patients with cirrhosis, outpatients and inpatients. Healthy controls were outpatients without any chronic diseases or medications. Patients with cirrhosis were included who were diagnosed using liver biopsy, evidence of frank decompensation or radiological features of cirrhosis who were between 21 and 75 years. Patients who were unable to give consent or provide stool within 48 hours of admission, with alcohol misuse, alcoholic hepatitis, on antifungal medications and with gastrointestinal bleeding episodes within 6 weeks were excluded. Also excluded were those undergoing HCV eradication or those on probiotics within the last 3 months. […]
as §3
The Microbiome Analysis Center's Portal was used to organize raw data, track clinical metadata, and track analysis between the groups at baseline and/if they develop infections and are resampled. […] The taxonomic identity of reference sequences were determined using the RDP11 Classifier (Wang Q et al. Appl Environ Microbiol 2007 73:5261-7) and QIIME Pipeline. […]

[6] = tested on: fungal taxa (stool mycobiome); assay: Cross-sectional study of outpatients with cirrhosis, fungal Shannon diversity; assay type: in vivo, human; details: outpatients with cirrhosis on rifaximin without SBP prophylaxis; vs SBPP 0.83±0.60
Protocol: as §4
Similarly, the ITS1 regions of the fungal 18S ribosomal RNA (rRNA) gene were sequenced on a PGM Ion Torrent Next-generation sequencer using Multitag fusion primers (ITS1F: 5′-[…]-3′ (SEQ ID NO:3); ITS2: 5′-[…]-3′ (SEQ ID NO:4)). Amplicons for 96 samples were sequenced together to generate >10,000×400 base reads per sample. The mycobiome is generally less diverse than the microbiome and thus required fewer reads to interrogate this community (Ghannoum M A, et al. PLoS pathogens 2010 6:e1000713). Greater than 1000 reads for bacteria and greater than 100 reads for fungi were used given the relatively lower abundance of fungal taxa as the lowest number chosen to be acceptable. […]

| MELD score after therapy [3] | SMILES | bacterial diversity (Shannon index) post ([1]; healthy controls, pre 1.88±0.16, p=0.004) | bacterial diversity (Shannon index) post ([1]; patients with cirrhosis, pre 1.89±0.25, p=0.05) | fungal diversity (Shannon index) post ([2]; healthy controls, pre 1.92±0.48, p=0.46) | fungal diversity (Shannon index) post ([2]; patients with cirrhosis, pre 1.64±0.34, p=0.39) | tolerability [4] | bacterial diversity (Shannon index) [5] | fungal diversity (Shannon index) [6] |
| --- | --- | --- | --- | --- | --- | --- | --- | --- |
| 7.9±3.5 | COc1ccc2[nH]c([S+]([O-])Cc3ncc(C)c(OC)c3C)nc2c1 (centres unmarked) [omeprazole] | 1.63±0.22 | 1.54±0.34 | 1.73±0.61 | 1.45±0.38 | able to tolerate |  |  |
|  | CO[C@H]1/C=C/O[C@@]2(C)Oc3c(C)c(O)c4c(O)c(c5c(nc6cc(C)ccn65)c4c3C2=O)NC(=O)/C(C)=C\C=C\[C@H](C)[C@H](O)[C@@H](C)[C@@H](O)[C@@H](C)[C@H](OC(C)=O)[C@@H]1C [rifaximin] |  |  |  |  |  | 1.32±0.51 | 0.77±0.77 |

Reference: patent publication US11253554B2, “Bacterial profile to detect fungal taxa abundance in the gut” (Virginia Commonwealth University, priority 2016, dated 2022)
